The test system of the assay is two-spotted spider mites. In words: Test 2: spraying onto two-spotted spider mites on kidney bean seedlings, count of mites (pest reproduction inhibition effect). The assay is classed as in vivo, Tetranychus urticae. To be noted: ten female adults inoculated on kidney bean seedlings, (A1) as 1% solution, average of pots. The method, then:
Ten female adult two-spotted spider mites were inoculated onto ‘Naga-uzura’ kidney bean seedlings (14 days after germination) grown in plastic pots, and an ethanol solution of the component (A1) was further diluted 10-fold with deionized water, and the resulting 1% solution was sprayed onto the spider mites. Two additional pots with similarly grown kidney bean seedlings were prepared. On the 2nd, 4th, 9th, 13th, and 17th days after spraying, the total number of two-spotted spider mites on the adaxial surface, abaxial surface, and true leaves of the kidney beans in each pot was counted, and the average value was calculated. The test was conducted in the same manner for the component (A3)′.

For the molecule `CCO` [(A3)′, ethanol], for the setting “Day 2 after spraying”, the “Number of two-spotted spider mites (Average) Day 2” value is listed as 9. For the same molecule, the “Number of two-spotted spider mites (Average) Day 4” value (Day 4 after spraying) worked out at 8. Moreover, under “Day 9 after spraying”, the “Number of two-spotted spider mites (Average) Day 9” value was determined as 287. Also, the “Number of two-spotted spider mites (Average) Day 13” value (Day 13 after spraying) came out at 564. Further, for the setting “Day 17 after spraying”, the “Number of two-spotted spider mites (Average) Day 17” value amounted to 924.

The values are drawn from patent US20260262652A1, “INSECT DAMAGE INHIBITOR, METHOD FOR USING RESIN COMPOSITION, CULTIVATION METHOD, POTTING SOIL, AND METHOD FOR IMPROVING SOIL” (ARAKAWA CHEMICAL INDUSTRIES, LTD., priority 2023, published 2026).
